This passage reports binding and binding constant results from publication PMC5459475 (2017).

SMILES strings stand for the structures.

In experiment [1] the test system is 6-FAM-CUG23 (RNA, repeat) CUGCUGCUGCUGCUGCUGCUGCUGCUGCUGCUGCUGCUGCUGCUGCUGCUGCUGCUGCUGCUGCUGCUG
In words: fluorescence polarization. The settings on record: 250 mM NaCl, 50 μM ZnCl2, 50 mM Tris-HCl pH 7.0, 10% glycerol, 1 mM DTT, on ice, RNA 6 nM.

The test system of experiment [2] is (CUG)12 RNA (CUGexp) (RNA, repeat) CUGCUGCUGCUGCUGCUGCUGCUGCUGCUGCUGCUG
Kind of experiment: direct fluorescence titration. To be noted: log K; fitted with HypSpec; buffer of the direct titration not stated separately.

For the compound `CC(=O)Nc1cccc(NC(=O)c2csc(NC(=O)c3ccc(Cl)cc3)n2)c1`, the binding result in experiment [1] (pentamidine-like polarization at 37.5 μM) is recorded as “yes”.
Turning to `CC1Cc2c(N)nc(NCc3ccc(CNc4nc(N)c5c(n4)NC(=O)C(C)C5)cc3)nc2NC1=O` (stereo not shown), the binding entry in experiment [1] (saturated at 250 μM) is reported as “yes”.
On to `CN1C(=Cc2cc[n+](C)c3ccccc23)Sc2ccccc21`, for which the binding constant in experiment [2] is 6.5(1) logarithmic units.
Consider `N=C(N)c1ccc(OCCCCCOc2ccc(C(=N)N)cc2)cc1`, for which the binding result in experiment [1] (100 μM pentamidine positive control) was “yes”.
